Results: publication PMC6514978, “Synthesis, Antibacterial Activities, Mode of Action and Acute Toxicity Studies of New Oxazolidinone-Fluoroquinolone Hybrids” (Molecules, 2019)
Converted amounts (≈) assume the structure as drawn.

Experiments:
[1] = system: MRSA (13B262); test: MIC, broth microdilution (CLSI), clinical isolate; assay type: cell-based; details: Staphylococcus aureus
Excerpt: (§1) 6 standard strains and 3 clinical isolates were used to the preliminary evaluation of in vitro antibacterial activities of oxazolidinone-fluoroquinolone hybrids. For the further evaluation of hybrids OBP-4 and OBP-5, 263 clinical isolates including S. aureus (46), S. haemolyticus(32), S. epidermidis (10), E. faecalis (72), E. faecium (47), S. pneumoniae (13), H. parasuis (34), S. suis (9), and 8 resistant strains including MRSA, MRSE, CIP-resistant S. aureus and S. haemolyticus, VAN and quinolone-resistant S. pneumoniae, LZD-resistant E. faecalis, LZD/VAN and quinolone-resistant E. faecium were collected and tested.
(§2) Susceptibility testing of oxazolidinone-fluoroquinolone hybrids against various bacteria was performed by the broth microdilution method as outlined by the Clinical and Laboratory Standards Institute (CLSI). Three types of media, including cation-adjusted Mueller Hinton broth, Haemophilus Test Medium and cation-adjusted Mueller Hinton broth that contained 3%–5% lysed horse blood, were used to culture the corresponding bacteria. All compounds including comparator drugs were dissolved in an appropriate solvent at a concentration of 2.048 mg/mL and then serially diluted two-fold to provide the required concentrations. A final inoculum of 5 × 10^5 CFU/mL was used and plates were read after incubation for 16–24 h at 35 °C. […] Standard quality control strains (ATCC) were included throughout. Each determination was repeated in triplicate.

[2] = system: S. agalactiae^R (13B317), levofloxacin-resistant S. agalactiae; test: MIC, broth microdilution (CLSI), clinical isolate; assay type: cell-based; details: Streptococcus agalactiae; levofloxacin-resistant S. agalactiae (13B317)
Excerpt: as §1, §2

[3] = system: VRE (13B330); test: MIC, broth microdilution (CLSI), clinical isolate; assay type: cell-based, vancomycin-resistant enterococcus; details: Enterococcus
Excerpt: as §1, §2

[4] = system: E. coli (ATCC25922); test: MIC, broth microdilution (CLSI), standard strain; assay type: cell-based; details: Escherichia coli; E. coli (ATCC25922); read-out: MIC
Excerpt: as §1, §2

[5] = system: E. faecalis (ATCC29212); test: MIC, broth microdilution (CLSI), standard strain; assay type: cell-based; details: Enterococcus faecalis; E. faecalis (ATCC29212); read-out: MIC
Excerpt: as §1, §2

[6] = system: H. influenzae (ATCC49247); test: MIC, broth microdilution (CLSI), standard strain; assay type: cell-based; details: Haemophilus influenzae
Excerpt: as §1, §2

[7] = system: P. Aeruginosa (ATCC27853); test: MIC, broth microdilution (CLSI), standard strain; assay type: cell-based; details: Pseudomonas aeruginosa; P. Aeruginosa (ATCC27853); read-out: MIC
Excerpt: as §1, §2

[8] = system: S. aureus (ATCC29213); test: MIC, broth microdilution (CLSI), standard strain; assay type: cell-based; details: Staphylococcus aureus
Excerpt: as §1, §2

[9] = system: S. pneumoniae (ATCC49619); test: MIC, broth microdilution (CLSI), standard strain; assay type: cell-based; details: Streptococcus pneumoniae
Excerpt: as §1, §2

[10] = system: S. aureus (46) clinical isolates; test: Susceptibility of clinical isolates (MIC); assay type: cell-based, Staphylococcus aureus; details: for Cumulative % of strains inhibited at MIC / No. of strains inhibited at MIC: S. aureus (46)
Experimental: as §2, with “All compounds including comparator drugs were dissolved in an appropriate solvent at a concentration of 2.048 mg/mL and then serially diluted two-fold to provide the required concentrations.” left out

[11] = system: S. haemolyticus (32) clinical isolates; test: Susceptibility of clinical isolates (MIC); assay type: cell-based, Staphylococcus haemolyticus; details: for Cumulative % of strains inhibited at MIC / No. of strains inhibited at MIC: S. haemolyticus (32)
Experimental: as §2, with “All compounds including comparator drugs were dissolved in an appropriate solvent at a concentration of 2.048 mg/mL and then serially diluted two-fold to provide the required concentrations.” left out

[12] = system: S. pneumoniae (13) clinical isolates; test: Susceptibility of clinical isolates (MIC); assay type: cell-based, Streptococcus pneumoniae; details: for Cumulative % of strains inhibited at MIC / No. of strains inhibited at MIC: S. pneumoniae (13)
Experimental: as §2, with “All compounds including comparator drugs were dissolved in an appropriate solvent at a concentration of 2.048 mg/mL and then serially diluted two-fold to provide the required concentrations.” left out

[13] = system: E. faecalis (72) clinical isolates; test: Susceptibility of clinical isolates (MIC); assay type: cell-based, Enterococcus faecalis; details: for Cumulative % of strains inhibited at MIC / No. of strains inhibited at MIC: E. faecalis (72)
Experimental: as §2, with “All compounds including comparator drugs were dissolved in an appropriate solvent at a concentration of 2.048 mg/mL and then serially diluted two-fold to provide the required concentrations.” left out

[14] = system: E. faecium (47) clinical isolates; test: Susceptibility of clinical isolates (MIC); assay type: cell-based, Enterococcus faecium; details: for Cumulative % of strains inhibited at MIC / No. of strains inhibited at MIC: E. faecium (47)
Experimental: as §2, with “All compounds including comparator drugs were dissolved in an appropriate solvent at a concentration of 2.048 mg/mL and then serially diluted two-fold to provide the required concentrations.” left out

[15] = system: MRSE; test: MIC against drug-resistant strain; assay type: cell-based, S. epidermidis; details: Staphylococcus epidermidis, read-out: MIC
Experimental: (§3) 6 standard strains and 3 clinical isolates were used to the preliminary evaluation of in vitro antibacterial activities of oxazolidinone-fluoroquinolone hybrids.
as §2, with “All compounds including comparator drugs were dissolved in an appropriate solvent at a concentration of 2.048 mg/mL and then serially diluted two-fold to provide the required concentrations.” left out

[16] = system: LZD-resistant E. faecalis; test: microbe, parasite or virus in culture; assay type: cell-based; details: Enterococcus faecalis
Experimental: as §3
as §2, with “All compounds including comparator drugs were dissolved in an appropriate solvent at a concentration of 2.048 mg/mL and then serially diluted two-fold to provide the required concentrations.” left out

[17] = system: CIP-resistant S. haemolyticus; test: MIC against drug-resistant strain; assay type: cell-based; details: Staphylococcus haemolyticus; S. haemolyticus, CIP-resistant; read-out: MIC
Experimental: as §3
as §2, with “All compounds including comparator drugs were dissolved in an appropriate solvent at a concentration of 2.048 mg/mL and then serially diluted two-fold to provide the required concentrations.” left out

[18] = system: LZD and quinolone-resistant E. faecium; test: MIC against drug-resistant strain; assay type: cell-based; details: Enterococcus faecium; E. faecium, LZD and quinolone-resistant; read-out: MIC
Experimental: as §3
as §2, with “All compounds including comparator drugs were dissolved in an appropriate solvent at a concentration of 2.048 mg/mL and then serially diluted two-fold to provide the required concentrations.” left out

[19] = system: VAN and quinolone-resistant E. faecium; test: MIC against drug-resistant strain; assay type: cell-based; details: Enterococcus faecium; E. faecium, VAN and quinolone-resistant; read-out: MIC
Experimental: as §3
as §2, with “All compounds including comparator drugs were dissolved in an appropriate solvent at a concentration of 2.048 mg/mL and then serially diluted two-fold to provide the required concentrations.” left out

[20] = system: VAN and quinolone-resistant S. pneumoniae; test: MIC against drug-resistant strain; assay type: cell-based; details: Streptococcus pneumoniae; S. pneumoniae, VAN and quinolone-resistant; read-out: MIC
Experimental: as §3
as §2, with “All compounds including comparator drugs were dissolved in an appropriate solvent at a concentration of 2.048 mg/mL and then serially diluted two-fold to provide the required concentrations.” left out

[21] = Enterococcus faecalis, E. faecalis, 72 clinical isolates

## C[C@H]1CCc2c(N3CCC(O)(COc4ccc(N5C[C@H](CO)OC5=O)cc4F)CC3)c(F)cc3c(=O)c(C(=O)O)cn1c23 [OBP-4]
[1]
  MIC: 0.5 µg/mL (≈ 0.834 µM)
[2]
  MIC: 0.031 µg/mL (≈ 0.0517 µM)
[3]
  MIC: 0.25 µg/mL (≈ 0.417 µM)
[4]
  MIC: 4 µg/mL (≈ 6.67 µM)
[5]
  MIC: 0.25 µg/mL (≈ 0.417 µM)
[6]
  MIC: 0.25 µg/mL (≈ 0.417 µM)
[7]
  MIC: 64 µg/mL (≈ 107 µM)
[8]
  MIC: 0.016 µg/mL (≈ 0.0267 µM)
[9]
  MIC: 0.031 µg/mL (≈ 0.0517 µM)
[10]; MIC 0.125 µg/mL
  Cumulative % of strains inhibited at MIC: 93.5%
  No. of strains inhibited at MIC: 17
[10]; MIC […]
  Cumulative % of strains inhibited at MIC: 100.0%
  No. of strains inhibited at MIC: 3
[10]; MIC ≤[…]
  Cumulative % of strains inhibited at MIC: 56.5%
  No. of strains inhibited at MIC: 26
[10]; Staphylococcus aureus, S. aureus, 46 clinical isolates, read-out: MIC50
  MIC50: ≤ 0.0625 µg/mL
[10]; Staphylococcus aureus, S. aureus, 46 clinical isolates, read-out: MIC90
  MIC90: 0.125 µg/mL (≈ 0.208 µM)
[10]; Staphylococcus aureus, S. aureus, 46 clinical isolates, read-out: MIC Range
  MIC: 0.0625 to 0.25 µg/mL (≈ 0.104 to 0.417 µM)
[11]; MIC 0.125 µg/mL
  Cumulative % of strains inhibited at MIC: 93.8%
  No. of strains inhibited at MIC: 16
[11]; MIC 0.5 µg/mL
  Cumulative % of strains inhibited at MIC: 100.0%
  No. of strains inhibited at MIC: 2
[11]; MIC ≤[…]
  Cumulative % of strains inhibited at MIC: 43.8%
  No. of strains inhibited at MIC: 14
[11]; Staphylococcus haemolyticus, S. haemolyticus, 32 clinical isolates, read-out: MIC50
  MIC50: 0.125 µg/mL (≈ 0.208 µM)
[11]; Staphylococcus haemolyticus, S. haemolyticus, 32 clinical isolates, read-out: MIC90
  MIC90: 0.125 µg/mL (≈ 0.208 µM)
[11]; Staphylococcus haemolyticus, S. haemolyticus, 32 clinical isolates, read-out: MIC Range
  MIC: 0.0625 to 0.5 µg/mL (≈ 0.104 to 0.834 µM)
[12]; MIC 0.125 µg/mL
  Cumulative % of strains inhibited at MIC: 38.5%
  No. of strains inhibited at MIC: 3
[12]; MIC 0.5 µg/mL
  Cumulative % of strains inhibited at MIC: 100.0%
  No. of strains inhibited at MIC: 1
[12]; MIC […]
  Cumulative % of strains inhibited at MIC: 92.3%
  No. of strains inhibited at MIC: 7
[12]; MIC ≤[…]
  Cumulative % of strains inhibited at MIC: 15.4%
  No. of strains inhibited at MIC: 2
[12]; S. pneumoniae, 13 clinical isolates
  MIC Range: ≤0.0625 to 0.5 µg/mL
[12]; Streptococcus pneumoniae, S. pneumoniae, 13 clinical isolates, read-out: MIC50
  MIC50: 0.25 µg/mL (≈ 0.417 µM)
[12]; Streptococcus pneumoniae, S. pneumoniae, 13 clinical isolates, read-out: MIC90
  MIC90: 0.25 µg/mL (≈ 0.417 µM)
[13]; MIC 0.125 µg/mL
  Cumulative % of strains inhibited at MIC: 36.1%
  No. of strains inhibited at MIC: 17
[13]; MIC 0.5 µg/mL
  Cumulative % of strains inhibited at MIC: 98.6%
  No. of strains inhibited at MIC: 2
[13]; MIC 1 µg/mL
  Cumulative % of strains inhibited at MIC: 100.0%
  No. of strains inhibited at MIC: 1
[13]; MIC […]
  Cumulative % of strains inhibited at MIC: 95.8%
  No. of strains inhibited at MIC: 43
[13]; MIC ≤[…]
  Cumulative % of strains inhibited at MIC: 12.5%
  No. of strains inhibited at MIC: 9
[13]; E. faecalis clinical isolates
  fold higher activity than comparator agents: 2- to 16 fold
[13]; E. faecalis, 72 clinical isolates
  MIC Range: ≤0.0625 to 1 µg/mL
[13]; [21]
  MIC50: 0.25 µg/mL (≈ 0.417 µM)
  MIC90: 0.25 µg/mL (≈ 0.417 µM)
[14]; MIC 0.5 µg/mL
  Cumulative % of strains inhibited at MIC: 95.7%
  No. of strains inhibited at MIC: 37
[14]; MIC 1 µg/mL
  Cumulative % of strains inhibited at MIC: 97.9%
  No. of strains inhibited at MIC: 1
[14]; MIC 2 µg/mL
  Cumulative % of strains inhibited at MIC: 100.0%
  No. of strains inhibited at MIC: 1
[14]; MIC […]
  No. of strains inhibited at MIC: 8
[14]; E. faecium clinical isolates
  fold higher activity than comparator agents: 16- to 128 fold
[14]; E. faecium, 47 clinical isolates
  MIC Range: 0.25 to 2 µg/mL
[15]
  MIC: ≤ 0.0625 µg/mL
[16]
  MIC: 1 µg/mL (≈ 1.67 µM)
[17]
  MIC: 0.5 µg/mL (≈ 0.834 µM)
[18]
  MIC: 0.5 µg/mL (≈ 0.834 µM)
[19]
  MIC: 0.5 µg/mL (≈ 0.834 µM)
[20]
  MIC: 0.25 µg/mL (≈ 0.417 µM)
